# Read-outs that look alike come from different tables or passages of the source.
# Assays:
# [1] = Single-dose plasma pharmacokinetics of telavancin in pediatric subjects (noncompartmental analysis); type: in vivo, human; details: single 10 mg/kg IV infusion over 60 min; for Tmax / Cmax / half-life: iv; for Tmax: median (minimum–maximum), read-out: T max (time at maximum concentration); for Cmax: read-out: C max (maximum plasma concentration); for half-life: read-out: T 1/2 (terminal elimination half-life) (converted)
# Protocol: The drug was infused over 60 min on Day 1. Blood samples were collected at 1, 1.5, 2, 6, 12, and 24 h following the start of infusion for PK analysis.
# Subjects with missing early PK samples were included in the PK population for plasma concentrations at each collected time point, but they were excluded from the PK modeling. […] The primary endpoints calculated from the plasma concentration-time data were maximum observed plasma concentration (C max), time to reach maximum plasma concentration (T max), area under the plasma concentration versus time curve from time 0 to the last sample with measurable analyte concentration (AUC0-last), area under the concentration versus time curve extrapolated to infinity (AUCinf), and terminal elimination half-life (T 1/2). CL and apparent steady-state volume of distribution (Vss) were also calculated from the plasma concentration-time data. PK parameters were calculated using noncompartmental analysis with Phoenix WinNonlin v8.1 (Certara, Princeton, NJ, USA).
# For calculation of mean concentrations at each time point and generation for mean concentration versus time profiles, all values below the limit of quantification (BLQ) were set to 0. […] For the NCA, actual infusion durations and actual sampling times were used. Infusion duration was calculated as the difference between the start of infusion time and the end of infusion time. Actual sampling times were calculated as the difference between the start of infusion time and the sampling time.
# For PK analysis and individual concentration versus time plots, a concentration that was BLQ was assigned a value of 0, if it occurred in a profile before the first measurable concentration and was set to missing thereafter, if two BLQ values occurred in succession after C max, the profile was deemed to have terminated at the first BLQ value, and any subsequent concentrations were omitted from PK calculations.
# [2] = From the text: All study procedures were reviewed and approved by the respective Institutional Review Board for each study site. Prior to any study procedures, written informed consent from a parent or legal guardian and assent (if appropriate for older patients) were obtained. The patient population consisted of subjects aged >12 months to <17 years of age who required systemic antibiotic therapy for the treatment or prevention of known or suspected bacterial infection. Subjects were enrolled into four cohorts stratified by age: adolescents (12–17 years of age), older children (6–11 years of age), younger children (2–5 years of age), and infants (1–2 years of age). […] The study consisted of a screening period followed by a treatment period and a safety follow-up period through Day 8 ± 1 day.
# Safety was monitored during both the screening and treatment periods by physical exams, vital signs, urinalysis, and clinical laboratory measures (complete blood count with differential, serum chemistry, creatinine, and liver enzymes); AEs and concomitant medications were recorded from screening through follow-up on Day 8 (± 1 day). Medical and medication history and demographics were collected at screening. Vital signs (heart rate, blood pressure, respiratory rate, and body temperature) were collected at screening, Days 1 and 2 of the study.
# [3] = Cohort 2 (6–11 years), N = 6, plasma, noncompartmental, mean ± SD
# [4] = Cohort 3 (2–5 years), N = 1, plasma, noncompartmental
# [5] = human, in vivo, 10 mg/kg, Cohort 1 (12–17 years), N = 13, plasma, mean ± SD
# [6] = human, in vivo, 10 mg/kg, Cohort 2 (6–11 years), N = 6, plasma, mean ± SD
# [7] = Cohort 1 (12–17 years), of 16 AEs, single 10 mg/kg IV
smiles,measurement,setting,value
CCCCCCCCCCNCCN[C@@]1(C)C[C@H](O[C@H]2[C@H](Oc3c4cc5cc3Oc3ccc(cc3Cl)[C@@H](O)[C@@H](NC(=O)[C@@H](CC(C)C)NC)C(=O)N[C@@H](CC(N)=O)C(=O)N[C@H]5C(=O)N[C@H]3C(=O)N[C@H](C(=O)N[C@H](C(=O)O)c5cc(O)c(CNCP(=O)(O)O)c(O)c5-c5cc3ccc5O)[C@H](O)c3ccc(c(Cl)c3)O4)O[C@H](CO)[C@@H](O)[C@@H]2O)O[C@@H](C)[C@H]1O [telavancin],Mean plasma telavancin concentration,"[1]; Cohort 1 (12–17 years), N = 13–14, nominal time 1 h after start of infusion, mean ± SD",58.1 ± 8.38
same,Mean plasma telavancin concentration,"[1]; Cohort 1 (12–17 years), N = 13–14, nominal time 1.5 h, mean ± SD",46.2 ± 7.01
same,Mean plasma telavancin concentration,"[1]; Cohort 1 (12–17 years), N = 13–14, nominal time 2 h, mean ± SD",37.4 ± 5.26
same,Mean plasma telavancin concentration,"[1]; Cohort 1 (12–17 years), N = 13–14, nominal time 6 h, mean ± SD",19.8 ± 3.58
same,Mean plasma telavancin concentration,"[1]; Cohort 1 (12–17 years), N = 13–14, nominal time 12 h, mean ± SD",8.84 ± 3.51
same,Mean plasma telavancin concentration,"[1]; Cohort 1 (12–17 years), N = 13–14, nominal time 24 h, mean ± SD",2.14 ± 0.922
same,CL (clearance),"[1]; Cohort 2 (6–11 years), N = 6, mean ± SD",0.5 ± 0.135 mL/min/kg
same,AUC0-inf (area under the curve extrapolated to infinity),[1]; [3],351 ± 79.7 µg·h/mL
same,AUC0-last (area under the curve from time zero until the last PK sample),[1]; [3],333 ± 74.2 µg·h/mL
same,Mean plasma telavancin concentration,"[1]; Cohort 2 (6–11 years), N = 6–7, nominal time 1 h after start of infusion, mean ± SD",60.1 ± 11.9
same,Mean plasma telavancin concentration,"[1]; Cohort 2 (6–11 years), N = 6–7, nominal time 1.5 h, mean ± SD",48.4 ± 8.66
same,Mean plasma telavancin concentration,"[1]; Cohort 2 (6–11 years), N = 6–7, nominal time 2 h, mean ± SD",41.9 ± 7.65
same,Mean plasma telavancin concentration,"[1]; Cohort 2 (6–11 years), N = 6–7, nominal time 6 h, mean ± SD",20.7 ± 3.64
same,Mean plasma telavancin concentration,"[1]; Cohort 2 (6–11 years), N = 6–7, nominal time 12 h, mean ± SD",9.20 ± 2.50
same,Mean plasma telavancin concentration,"[1]; Cohort 2 (6–11 years), N = 6–7, nominal time 24 h, mean ± SD",2.08 ± 1.23
same,CL (clearance),"[1]; Cohort 3 (2–5 years), N = 1",0.728 mL/min/kg
same,T max (time at maximum concentration),"[1]; Cohort 3 (2–5 years), N = 1",1.18 h
same,Mean plasma telavancin concentration,"[1]; Cohort 3 (2–5 years), N = 1, nominal time 1 h after start of infusion",53.1
same,Mean plasma telavancin concentration,"[1]; Cohort 3 (2–5 years), N = 1, nominal time 1.5 h",45.0
same,Mean plasma telavancin concentration,"[1]; Cohort 3 (2–5 years), N = 1, nominal time 2 h",37.3
same,Mean plasma telavancin concentration,"[1]; Cohort 3 (2–5 years), N = 1, nominal time 6 h",18.0
same,Mean plasma telavancin concentration,"[1]; Cohort 3 (2–5 years), N = 1, nominal time 12 h",2.67
same,Mean plasma telavancin concentration,"[1]; Cohort 3 (2–5 years), N = 1, nominal time 24 h",0.146
same,C max (maximum plasma concentration),"[1]; Cohort 3 (2–5 years), N = 1, plasma",53.1 µg/mL
same,T 1/2 (terminal elimination half-life),"[1]; Cohort 3 (2–5 years), N = 1, plasma, 10 mg/kg",2.73 h
same,AUC0-inf (area under the curve extrapolated to infinity),[1]; [4],229 µg·h/mL
same,AUC0-last (area under the curve from time zero until the last PK sample),[1]; [4],228 µg·h/mL
same,Tmax,"[1]; human, in vivo, 10 mg/kg, Cohort 1 (12–17 years), N = 13",1.02 h
same,Cmax,[1]; [5],58.3 ± 8.4 µg/mL
same,half-life,[1]; [5],5.6 ± 1.01 h
same,Tmax,"[1]; human, in vivo, 10 mg/kg, Cohort 2 (6–11 years), N = 6",1.09 h
same,Cmax,[1]; [6],60.1 ± 11.9 µg/mL
same,half-life,[1]; [6],5.19 ± 0.751 h
same,clearance,"[1]; human, in vivo, Cohort 1 (12–17 years), N = 13, mean ± SD, read-out: CL (clearance) (converted)",0.497 mL/min/kg
same,AUC(0-inf),"[1]; human, in vivo, Cohort 1 (12–17 years), N = 13, plasma, noncompartmental, mean ± SD, read-out: AUC0-inf (area under the curve extrapolated to infinity)",345 ± 58.5 µg·h/mL
same,AUC(0-t),"[1]; human, in vivo, Cohort 1 (12–17 years), N = 13, plasma, noncompartmental, mean ± SD, read-out: AUC0-last (area under the curve from time zero until the last PK sample)",326 ± 50 µg·h/mL
same,Number of adverse events,"[2]; Cohort 1 (12–17 years), N = 14, across six patients, single 10 mg/kg IV",16
same,Adverse events deemed probably related to telavancin administration,"[2]; Cohort 1 (12–17 years), fifteen of the 16 events",94%
same,Number of adverse events mild in severity,[2]; [7],13
same,Number of adverse events moderate in severity,[2]; [7],3
same,Number of adverse events,"[2]; Cohort 2 (6–11 years), N = 7, across four patients, single 10 mg/kg IV",11
same,Number of adverse events mild in severity,"[2]; Cohort 2 (6–11 years), of 11 AEs, single 10 mg/kg IV",nine

# Source: publication PMC10649008 (Antimicrobial Agents and Chemotherapy, 2023)
